Test results reported in patent publication US20240082398A1, “METHODS OF PREPARING AND EXPANDING TYPE I INNATE LYMPHOID CELLS AND THERAPEUTIC USES THEREOF” (City of Hope, priority 2021, published 2024).
Entries after “also recorded” stand apart in the source; their conditions may differ.

Tests used:
[1] = tested on: LS^−K^+ leukemia progenitor cells; assay: Differentiation of sorted leukemia progenitor cells into myeloid blasts; format: cell-based, mouse; settings: treated 5 days, among the groups
Procedure: The process of LSC differentiation into AML blasts includes transitions from LSCs to LS^−K^+ leukemia progenitor cells, and from LS^−K^+ leukemia progenitor cells to AML blasts. To investigate which part of the process was affected by ILC1 and IFN-γ, LS^−K^+ leukemia progenitor cells were sorted from Mll^PTD/WT/Flt3^ITD/ITD AML mice, then the LS^−K^+ leukemia progenitor cells were treated with WT ILC1, ILC1s, or recombinant IFN-γ for 5 days. […] Thus, ILC1s block LSC differentiation into AML blasts, likely via a process involving by IFN-γ, during the transition from LSCs into LS^−K^+ leukemia progenitor cells, upstream of progenitor cell differentiation into AML blasts (FIG. 9D).
LSCs transition into LS^−K^+ leukemia progenitor cells before becoming AML blasts.

[2] = tested on: mouse LSCs (Lin^−Sca-1^+c-Kit^+); assay: LSCs and ILC1s in vitro co-culture assay (LSC apoptosis), mouse; format: cell-based; settings: recombinant murine cytokine instead of ILC1s, indicated doses, 3-4 days
Procedure: A total of 2,000 LSCs from AML patients labeled with CTV were co-cultured with different numbers of human ILC1s supplemented with human IL-12 (10 ng/ml) and IL-15 (100 ng/ml). After 3 days of co-culture, cells were harvested and analyzed by flow cytometry. 7-AAD was used to identify dead cells. For mouse LSCs co-culture assay, 2,000 LSCs from Mll^PTD/WT/Flt3^ITD/ITD mice labeled with CTV were co-cultured with different numbers of mouse ILC1s supplemented with mouse IL-12 (10 ng/ml) and IL-15 (100 ng/ml). After 3 days of co-culture, cells were harvested and analyzed by flow cytometry. 7-AAD was used to identify the dead cells. For the co-culture of LSCs and ILC1s using the transwell co-culture system, 2,000 human or mouse LSCs were seeded in the lower chamber while different numbers of human or mouse ILC1s were seeded in the upper chamber. After 3 days, cells were harvested and analyzed by flow cytometry. 7-AAD was used to identify the dead cells. For co-culture assay with cytokines and antibodies, 2,000 human or mouse LSCs were co-cultured with different doses of human or mouse TNF-α, IFN-γ, anti-TNF-α (10 μg/ml) Ab, or anti-IFN-γ Ab (10 μg/ml). Three days after the co-culture, cells were harvested and analyzed by flow cytometry. 7-AAD was used to identify the dead cells.
For human LSC co-culture assays, LSCs from patients with AML were labeled with […] CTV and co-cultured in the presence of human IL-12 (10 ng/ml) and IL-15 (100 ng/ml) with various numbers of ILC1s isolated from peripheral blood of healthy donors or patients with AML. […] For all co-culture assays, cells were harvested after 3 days and analyzed using flow cytometry. […]
ILC1s were co-cultured with LSCs at a ratio of 1:1 or 1:2 for 6 h. […] Plates were then shaken at 300 rpm for 1 min, incubated for 60 min at room temperature, and then read on a luminometer (Promega, Glomax). Background luminescence was determined with 100 μl of culture medium without cells and subtracted before fold changes were calculated.

[3] = tested on: mouse LSCs; assay: RNA-seq of LSCs after ILC1 co-culture or IFN-γ treatment; format: cell-based; settings: vs untreated LSCs
Procedure: For mouse ILC1 RNA-sequencing, mouse ILC1s were sorted from the liver of normal mice or mice with AML using BD FACSAria™ Fusion. […] Total RNA was isolated from ILC1s or LSCs using a miRNeasy mini kit (QIAGEN). PolyA RNA-seq was performed in the Integrative Genomics Core of City of Hope National Medical Center. SMART-Seq® Ultra Low Input RNA Kit for Sequencing-v4 (Takara Bio) was used for getting double-strand cDNA from each sample with 2 ng of input total RNA. The resulting cDNA was sheared using a Covaris LE220 sonicator. The sheared DNA was used for to prepare a sequencing library, using a KAPA HyperPrep Kit. The final libraries were quantified using the Qubit Assay Kit (Thermo Fisher Scientific) and Bioanalyzer (Agilent). Sequencing was performed using the single-read mode of 51 cycles of read1 and 7 cycles of index read with V4 reagents on a Hiseq 2500 system (Illumina). Real-time analysis (RTA) 2.2.38 software was used to process the image analysis and base calling.
2,000 mouse LSCs were co-cultured with 1,000 ILC1s or treated with 1 ng/ml IFN-γ for 3 days, and then the LSCs were sorted using BD FACSAria Fusion. Total RNA of LSCs were isolated using miRNeasy mini kit (QIAGEN). SMART-Seq® Ultra Low Input RNA Kit for Sequencing-v4 was used for generating amplified double strand cDNA from each sample with 2 ng of input total RNA according to the manufacturer's protocol. The resulting double-stranded cDNA sheared with Covaris LE220 with the setting of DNA fragment size of 200 bp peak. The sheared DNA was used for sequencing library preparation by using KAPA HyperPrep Kits. The final libraries were quantified with qubit and bioanalyzer. The sequencing was performed with the single read mode of 51 cycles of read1 and 7 cycles of index read with V4 reagents on Hiseq2500. Real-time analysis (RTA) 2.2.38 software was used to process the image analysis and base calling.
Prism software v.8 (GraphPad, CA, USA) was used to perform statistical analysis. Two group comparisons were performed with a two-tailed Student's t-test; multiple group comparisons were performed with a one-way ANOVA test with a multiple comparisons option. For Kaplan-Meier survival curve analysis, the comparisons were performed using a log-rank (Mantel-Cox) test. For continuous endpoints, Student's t test was used to compare two independent conditions, and one-way ANOVA models were used to compare three or more independent conditions. For repeated measures over time, linear mixed models were used to account for the variance and covariance structure. Mouse survival was estimated by the Kaplan-Meier method and compared by log-rank tests. All tests were two-sided. P values were adjusted for multiple comparisons by Holm's procedure. For RNA-seq analysis, sequencing reads were trimmed from sequencing adapters using Trimmomatic^74 and polyA tails using FASTPT^75, and then mapped back to the mouse genome (mm10) using STAR (v. 020201)^76. The gene-level count table was created by HTSeq (v.0.6.0)^77 and normalized by the TMM^78 method. General linear models based on negative binomial distributions (R package “EdgeR”) were used to compare gene expression levels between two specific cell types. […] Pathway and gene set enrichment analyses were performed using the GSEA^79,80 program, which runs the GSEAPreranked algorithm on a ranked list of genes. Data are presented as mean±SD. Prism software v.8 (GraphPad, CA, USA) and SAS v.9.4 (SAS Institute. NC, USA) were used to perform statistical analyses. The p-values are represented as: *<0.05, **<0.01, ***<0.001, and ****<0.0001

recombinant murine IFN-γ: animal-free recombinant murine IFN-γ cytokine
percentage of Mac-1^+ and Gr-1^+ cells from LS^−K^+ leukemia progenitor cells [1]: do not affect the differentiation of leukemia progenitor cells into myeloid blasts
percentage of Mac-1^+ and Gr-1^+ cells from LS^−K^+ leukemia progenitor cells ([1]; listed as recombinant IFN-γ): no statistical difference; also recorded: remained constant
LSC apoptosis on treatment with recombinant cytokine [2]: We observed LSC apoptosis with IFN-γ
LSC apoptosis on treatment with recombinant cytokine ([2]; listed as IFN-γ): induces apoptosis of LSCs
LSC apoptosis on treatment with recombinant cytokine ([2]; listed as Recombinant murine IFN-γ): induced LSC apoptosis
E2F targets, G2M checkpoints, MYC targets and mitotic spindle pathways in LSCs (GSEA) [3]: significant suppression; also recorded: significantly suppressing
JAK-STAT and PI3K-AKT signaling pathways in LSCs [3]: activation of the JAK-STAT and PI3K-AKT signaling pathways
apoptotic pathways in LSCs (GSEA) [3]: activated apoptotic pathways
expression of Akt3, Jak2, Stat1/2, Irf1/2/7/8/9 and Socs1 in LSCs [3]: increased expression
expression of genes associated with lymphoid differentiation (Gimap4, Gpb4, Irf8, Irf1) [3]: increased expression
expression of genes associated with myeloid differentiation (S100a8/S100a9, Chil3, Serpinb1a, Slc28a2) [3]: reduced their expression
